Assays:
Format in all cases: cell-based
COLO205 (colon) = experiment: Inhibition of cell proliferation, CellTiter-Glo, COLO205; conditions: Homo sapiens, COLO 205, 72 h
Summary of the method: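 Exponentially growing COLO205 cells in medium with 10% FBS were plated below 2000 cells/well at 37 °C, 5% CO2. Untreated wells served as controls.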

[1] = target: T1, human IGF-1R (NIH-3T3 cells over expressing human IGF-1R) (Homo sapiens, UniProt P08069); experiment: IGF-1R cellular autophosphorylation (DELFIA); conditions: IGF-1 stimulated
T1 construct: expressed in transfected cells; host or cells: NIH-3T3 (mouse fibroblasts)
T1 sequence (P08069 31-1367): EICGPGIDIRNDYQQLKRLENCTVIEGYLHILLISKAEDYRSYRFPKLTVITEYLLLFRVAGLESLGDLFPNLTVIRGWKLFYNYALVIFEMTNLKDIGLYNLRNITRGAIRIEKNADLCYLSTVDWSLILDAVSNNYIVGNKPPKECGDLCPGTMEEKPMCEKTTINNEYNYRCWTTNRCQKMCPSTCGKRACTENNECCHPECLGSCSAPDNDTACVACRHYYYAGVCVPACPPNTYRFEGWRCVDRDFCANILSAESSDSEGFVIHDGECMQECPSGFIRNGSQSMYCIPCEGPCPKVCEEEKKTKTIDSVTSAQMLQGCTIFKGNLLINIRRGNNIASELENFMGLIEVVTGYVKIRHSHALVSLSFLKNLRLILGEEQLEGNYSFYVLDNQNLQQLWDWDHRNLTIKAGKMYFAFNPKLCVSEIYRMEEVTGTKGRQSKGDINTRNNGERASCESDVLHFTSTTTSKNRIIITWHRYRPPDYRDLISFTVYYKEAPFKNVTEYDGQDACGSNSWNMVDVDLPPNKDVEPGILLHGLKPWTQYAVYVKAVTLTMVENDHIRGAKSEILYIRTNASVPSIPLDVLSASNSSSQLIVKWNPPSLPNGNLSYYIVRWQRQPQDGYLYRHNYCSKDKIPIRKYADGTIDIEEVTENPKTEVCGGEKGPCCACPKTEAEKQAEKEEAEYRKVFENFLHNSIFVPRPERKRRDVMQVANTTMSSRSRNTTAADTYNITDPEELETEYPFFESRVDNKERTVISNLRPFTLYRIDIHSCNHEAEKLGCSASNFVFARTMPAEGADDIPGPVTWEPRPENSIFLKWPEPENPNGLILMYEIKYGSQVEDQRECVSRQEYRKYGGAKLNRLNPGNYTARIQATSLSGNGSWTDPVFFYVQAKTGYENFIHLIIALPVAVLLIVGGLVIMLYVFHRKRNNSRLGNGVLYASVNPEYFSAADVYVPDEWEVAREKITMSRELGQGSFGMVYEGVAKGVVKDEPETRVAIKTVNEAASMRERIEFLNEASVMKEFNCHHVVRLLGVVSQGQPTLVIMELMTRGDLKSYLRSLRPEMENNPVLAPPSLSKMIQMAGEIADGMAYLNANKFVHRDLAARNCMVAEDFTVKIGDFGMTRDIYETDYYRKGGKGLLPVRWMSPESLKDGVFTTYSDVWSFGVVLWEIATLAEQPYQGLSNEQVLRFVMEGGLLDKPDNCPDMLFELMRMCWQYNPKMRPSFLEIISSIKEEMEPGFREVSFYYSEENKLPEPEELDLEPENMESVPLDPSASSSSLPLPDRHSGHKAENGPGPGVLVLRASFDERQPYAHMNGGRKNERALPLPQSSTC
Summary of the method: (§1)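 Read-out: DELFIA on lysates, receptor-specific capture antibody plus europium-labelled anti-phosphotyrosine, reported as % of IGF-1- or insulin-stimulated signal. Transfected NIH-3T3 cells got compound (30 uM–1.5 nM, 2 h) before a 15 min ligand pulse: IGF-1 30 ng/mL for IGF-1R, insulin 3 ug/mL for IR.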

[2] = target: T2, IR (NIH-3T3 cells over expressing human IGF-1R or IR) (Homo sapiens, UniProt P06213); experiment: IR cellular autophosphorylation (DELFIA); conditions: NIH-3T3 cells over expressing IR, insulin stimulated
T2 construct: expressed in transfected cells; host or cells: NIH-3T3 (mouse fibroblasts)
T2 sequence (P06213 28-1382): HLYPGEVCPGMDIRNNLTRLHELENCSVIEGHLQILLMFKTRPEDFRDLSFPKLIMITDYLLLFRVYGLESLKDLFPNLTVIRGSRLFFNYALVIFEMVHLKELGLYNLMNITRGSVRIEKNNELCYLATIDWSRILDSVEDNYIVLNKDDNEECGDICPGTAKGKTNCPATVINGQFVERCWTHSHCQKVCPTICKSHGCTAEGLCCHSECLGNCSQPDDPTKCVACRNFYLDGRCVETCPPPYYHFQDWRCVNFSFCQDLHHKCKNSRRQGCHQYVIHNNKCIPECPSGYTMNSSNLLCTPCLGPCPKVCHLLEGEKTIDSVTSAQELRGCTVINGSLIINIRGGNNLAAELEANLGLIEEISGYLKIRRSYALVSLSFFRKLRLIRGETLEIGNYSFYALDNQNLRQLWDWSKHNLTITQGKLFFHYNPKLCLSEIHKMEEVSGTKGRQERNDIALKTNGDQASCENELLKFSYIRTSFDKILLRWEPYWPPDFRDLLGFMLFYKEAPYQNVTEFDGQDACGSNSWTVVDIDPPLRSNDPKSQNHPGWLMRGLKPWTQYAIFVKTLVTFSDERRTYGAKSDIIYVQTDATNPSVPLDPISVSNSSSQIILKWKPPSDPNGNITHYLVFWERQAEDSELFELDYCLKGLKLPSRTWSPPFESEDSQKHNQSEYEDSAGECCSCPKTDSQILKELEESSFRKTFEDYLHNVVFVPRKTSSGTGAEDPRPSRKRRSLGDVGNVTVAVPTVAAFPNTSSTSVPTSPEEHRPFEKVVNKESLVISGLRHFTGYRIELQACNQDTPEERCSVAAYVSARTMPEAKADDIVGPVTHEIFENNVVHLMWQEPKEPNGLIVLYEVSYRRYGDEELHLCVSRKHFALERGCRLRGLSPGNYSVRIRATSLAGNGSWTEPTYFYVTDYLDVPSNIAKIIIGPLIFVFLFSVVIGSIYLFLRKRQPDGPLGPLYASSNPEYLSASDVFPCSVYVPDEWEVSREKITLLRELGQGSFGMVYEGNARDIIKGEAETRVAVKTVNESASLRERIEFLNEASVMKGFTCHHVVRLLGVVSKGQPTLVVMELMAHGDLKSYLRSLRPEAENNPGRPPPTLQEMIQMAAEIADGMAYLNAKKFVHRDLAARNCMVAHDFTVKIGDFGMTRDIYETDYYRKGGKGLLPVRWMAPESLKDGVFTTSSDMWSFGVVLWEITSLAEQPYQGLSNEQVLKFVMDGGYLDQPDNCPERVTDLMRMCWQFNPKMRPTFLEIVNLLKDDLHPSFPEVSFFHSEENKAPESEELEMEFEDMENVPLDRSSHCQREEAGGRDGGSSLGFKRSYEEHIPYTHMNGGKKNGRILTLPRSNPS
Summary of the method: as §1

IC50 (COLO205 (colon)) [nM] | IC50 [1] [nM] | IC50 [2] [nM] | Structure (SMILES)
250 to 1000 | < 100 | < 100 | COc1cc(CCCN2CCCCC2)ccc1Nc1nccc(-c2c(-c3ccc(OC)c(C(=O)Nc4c(F)cccc4F)c3)nc3ccccn23)n1 [Example 140, N-(2,6-difluorophenyl)-2-(methyloxy)-5-{3-[2-({2-(methyloxy)-4-[3-(1-piperidinyl)propyl]phenyl}amino)-4-pyrimidinyl]imidazo[1,2-a]pyridin-2-yl}benzamide]
250 to 1000 | < 100 | 100 to 500 | Cc1cc(N2CCC(N3CCCCC3)CC2)ccc1Nc1nccc(-c2c(-c3cccc(C(=O)Nc4c(F)cccc4F)c3)nc3ccccn23)n1 [Example 53, 3-[3-(2-{[4-(1,4′-bipiperidin-1′-yl)-2-methylphenyl]amino}-4-pyrimidinyl)imidazo[1,2-a]pyridin-2-yl]-N-(2,6-difluorophenyl)benzamide]
< 250 | < 100 | < 100 | CCOc1cc(N2CCN(C3CCN(CCS(C)(=O)=O)CC3)CC2)ccc1Nc1nccc(-c2c(-c3cccc(C(=O)Nc4c(F)cccc4F)c3)nc3ccccn23)n1 [Example 92, N-(2,6-difluorophenyl)-3-[3-(2-{[2-(ethyloxy)-4-(4-{1-[2-(methylsulfonyl)ethyl]-4-piperidinyl}-1-piperazinyl)phenyl]amino]-4-pyrimidinyl)imidazo[1,2-a]pyridin-2-yl]benzamide]
250 to 1000 | < 100 | < 100 | COc1cc([C@H]2CC[C@@H](N3CCN(CCS(C)(=O)=O)CC3)CC2)ccc1Nc1nccc(-c2c(-c3cccc(C(=O)Nc4c(F)cccc4F)c3)nc3ccccn23)n1 [Example 93, N-(2,6-difluorophenyl)-3-[3-(2-{[2-(methyloxy)-4-(cis-4-{4-[2-(methylsulfonyl)-ethyl]-1-piperazinyl}cyclohexyl)phenyl]amino]-4-pyrimidinyl)imidazo[1,2-a]pyridin-2-yl]benzamide]
250 to 1000 | 100 to 500 | 100 to 500 | CC(C)Oc1cc(N2CCC(N3CCCCC3)CC2)ccc1Nc1nccc(-c2c(-c3cccc(C(=O)Nc4c(F)cccc4F)c3)nc3ccccn23)n1 [Example 35, 3-{3-[2-({4-(1,4′-bipiperidin-1′-yl)-2-[(1-methylethyl)oxy]phenyl}amino)-4-pyrimidinyl]imidazo[1,2-a]pyridin-2-yl}-N-(2,6-difluorophenyl)benzamide]
250 to 1000 | 100 to 500 | 100 to 500 | Cn1cc(-c2cccc(Nc3nccc(-c4c(-c5cccc(C(=O)Nc6c(F)cccc6F)c5)nc5ccccn45)n3)c2)cn1 [Example 11, N-(2,6-difluorophenyl)-3-[3-(2-{[3-(1-methyl-1H-pyrazol-4-yl)phenyl]amino}-4-pyrimidinyl)imidazo[1,2-a]pyridin-2-yl]benzamide]
250 to 1000 | < 100 | < 100 | COc1cc(N2CCC(N3CCCCC3)CC2)c(F)cc1Nc1nccc(-c2c(-c3cccc(C(=O)Nc4c(F)cccc4F)c3)nc3ccccn23)n1 [Example 106, 3-[3-(2-{[4-(1,4′-bipiperidin-1′-yl)-5-fluoro-2-(methyloxy)phenyl]amino}-4-pyrimidinyl)imidazo[1,2-a]pyridin-2-yl]-N-(2,6-difluorophenyl)benzamide]
250 to 1000 | 100 to 500 | 100 to 500 | COc1cc(N2CCC(N3CCSCC3)CC2)ccc1Nc1nccc(-c2c(-c3cccc(C(=O)Nc4c(F)cccc4F)c3)nc3ccccn23)n1 [Example 85, N-(2,6-difluorophenyl)-3-{3-[2-({2-(methyloxy)-4-[4-(4-thiomomholinyl)-1-piperidinyl]phenyl}amino)-4-pyrimidinyl]imidazo[1,2-a]pyridin-2-yl}benzamide]
250 to 1000 | < 100 | 100 to 500 | COc1cc(N2CCC(N3CCCCC3)CC2)ccc1Nc1nccc(-c2c(-c3cccc(C(=O)Nc4ccc(Cl)cc4F)c3)nc3ccccn23)n1 [Example 45, 3-[3-(2-{[4-(1,4′-bipiperidin-1′-yl)-2-(methyloxy)phenyl]amino}-4-pirimidinyl)imidazo[1,2-a]pyridin-2-yl]-N-(4-chloro-2-fluorophenyl)benzamide]
250 to 1000 | < 100 | < 100 | COc1cc(N2CCC(N3CCCCCC3)CC2)ccc1Nc1nccc(-c2c(-c3cccc(C(=O)Nc4c(F)cccc4F)c3)nc3ccccn23)n1 [Example 50, N-(2,6-difluorophenyl)-3-[3-(2-{[4-[4-(hexahydro-1H-azepin-1-yl)-1-piperidinyl]-2-(methyloxy)phenyl]amino}-4-pyrimidinyl)imidazo[1,2-a]pyridin-2-yl]benzamide]
250 to 1000 | 100 to 500 | > 500 | COc1ccn2c(-c3ccnc(Nc4cccc(OCCN(C)C)c4)n3)c(-c3cccc(C(=O)Nc4c(F)cccc4F)c3)nc2c1 [Example 17, N-(2,6-difluorophenyl)-3-[3-{2-[(3-{[2-(dimethylamino)ethyl]oxy}phenyl)amino]-4-pyrimidinyl}-7-(methyloxy)imidazo[1,2-a]pyridin-2-yl]benzamide]
250 to 1000 | < 100 | 100 to 500 | CCc1cc(N2CCC(N3CCCCC3)CC2)ccc1Nc1nccc(-c2c(-c3cccc(C(=O)Nc4c(F)cccc4F)c3)nc3ccccn23)n1 [Example 40, 3-[3-(2-{[4-(1,4′-bipiperidin-1′-yl)-2-ethylphenyl]amino}-4-pyrimidinyl)imidazo[1,2-a]pyridin-2-yl]-N-(2,6-difluorophenyl)benzamide]
< 250 | < 100 | 100 to 500 | COc1ccc(-c2nc3ccccn3c2-c2ccnc(Nc3cccc(OCCN(C)C)c3)n2)cc1C(=O)Nc1c(F)cccc1F [Example 1, N-(2,6-difluorophenyl)-5-(3-{2-[(3-{[2-(dimethylamino)ethyl]oxy}phenyl)-amino]-4-pyrimidinyl}imidazo[1,2-a]pyridin-2-yl)-2-(methyloxy)benzamide]
< 250 | < 100 | < 100 | COc1cc(N2CCN(C3CCN(CCS(C)(=O)=O)CC3)CC2)ccc1Nc1nccc(-c2c(-c3cccc(C(=O)Nc4c(F)cccc4F)c3)nc3ccccn23)n1 [Example 89, N-(2,6-difluorophenyl)-3-[3-(2-{[2-(methyloxy)-4-(4-{1-[2-(methylsulfonyl)ethyl]-4-piperidinyl}-1-piperazinyl)phenyl]amino}-4-pyrimidinyl)imidazo[1,2-a]pyridin-2-yl]benzamide]
250 to 1000 | < 100 | 100 to 500 | COc1cc(N2CCC(O)CC2)ccc1Nc1nccc(-c2c(-c3cccc(C(=O)Nc4c(F)cccc4F)c3)nc3ccccn23)n1 [Example 73, N-(2,6-difluorophenyl)-3-[3-(2-{[4-(4-hydroxy-1-piperidinyl)-2-(methyloxy)phenyl]amino}-4-pyrimidinyl)imidazo[1,2-a]pyridin-2-yl]benzamide]

Structure (SMILES) | IC50 (COLO205 (colon)) [nM] | IC50 [1] [nM] | IC50 [2] [nM]
COc1ccn2c(-c3ccnc(Nc4ccc(N5CCC(N6CCN(CCF)CC6)CC5)cc4OC)n3)c(-c3cccc(C(=O)Nc4c(F)cccc4F)c3)nc2c1 [Example 62, N-(2,6-difluorophenyl)-3-[3-(2-{[4-{4-[4-(2-fluoroethyl)-1-piperazinyl]-1-piperidinyl}-2-(methyloxy)phenyl]amino}-4-pyrimidinyl)-7-(methyloxy)imidazo[1,2-a]pyridin-2-yl]benzamide] | 250 to 1000 | < 100 | < 100

— US20100216779A1 (GLAXOSMITHKLINE LLC, priority 2007, published 2010)
